Source: patent US5486518A, “4-indolylpiperazinyl derivatives” (American Home Products Corporation, priority 1995, dated 1996)

Target: T1, serotonin 5-HT1 A receptor (Rattus norvegicus, UniProt P19327)
T1 construct: rat hippocampal membrane homogenate; from tissue; host or cells: rat hippocampus (membrane homogenate)
T1 sequence (P19327 1-422): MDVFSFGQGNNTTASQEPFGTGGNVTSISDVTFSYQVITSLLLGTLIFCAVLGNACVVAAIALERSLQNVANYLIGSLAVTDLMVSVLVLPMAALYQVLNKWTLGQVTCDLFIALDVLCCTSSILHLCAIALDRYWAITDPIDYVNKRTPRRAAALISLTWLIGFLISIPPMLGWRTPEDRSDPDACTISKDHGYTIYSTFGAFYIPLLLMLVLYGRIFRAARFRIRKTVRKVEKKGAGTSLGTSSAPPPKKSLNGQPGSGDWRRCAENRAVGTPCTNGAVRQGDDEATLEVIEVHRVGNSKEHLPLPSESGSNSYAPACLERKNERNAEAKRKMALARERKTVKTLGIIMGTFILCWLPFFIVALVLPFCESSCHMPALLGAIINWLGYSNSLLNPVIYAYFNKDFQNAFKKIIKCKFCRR
Experiment: displacement of [^3 H]8-OHDPAT from the 5-HT1 A serotonin receptors in rat hippocampal membrane homogenate
Assay type: binding
Text: High affinity for the serotonin 5-HT1 A receptor was established by testing the claimed compound's ability to displace [^3 H]8-OHDPAT (dipropylaminotetralin) from the 5-HT1 A serotonin receptors in rat hippocampal membrane homogenate following the procedure of B. S. Alexander and M. D. Wood, J. Pharm. Pharmacol. 1988, 40, 888-891.

| IC50 | Compound |
| --- | --- |
| 2 nM | O=C(N[C@@H](CN1CCN(c2cccc3[nH]ccc23)CC1)c1ccccc1)C1CCCCC1 [Example 1] |
| 35.5 nM | CC(=O)N[C@@H](CN1CCN(c2cccc3[nH]ccc23)CC1)c1ccccc1 [Example 2] |
| 5 nM | O=C(N[C@@H](CN1CCN(c2cccc3[nH]ccc23)CC1)c1ccccc1)c1ccccc1 [Example 3] |
| 8.3 nM | O=C(N[C@H](Cc1ccccc1)CN1CCN(c2cccc3[nH]ccc23)CC1)C1CCCCC1 [Example 4, (R)- Cyclohexane Carboxylic Acid 1-Phenylmethyl-2-[1-[4-(4-indolyl)piperazinyl]] ethylamide] |
